Experimental data: patent US8796289B2 (AbbVie Inc., priority 2011, dated 2014)

Biological target: GST-tagged-Wee1 kinase (Homo sapiens, UniProt P30291)
Assay: Wee1 time-resolved fluorescence equilibrium binding assay (displacement of Oregon Green-labeled ATP-competitive kinase probe)
Protocol: Wee1 kinase was assayed using a time-resolved fluorescence equilibrium binding assay monitoring displacement of a rapidly reversible Oregon Green-labeled ATP-competitive kinase probe (N-(2-(2-(2-(4-(4-(5-chloro-4-(2-(1-hydroxycyclobutyl)thiazol-5-yl)-1H-pyrrolo[2,3-b]pyridin-2-yl)phenyl)piperazin-1-yl)ethoxy)ethoxy)ethyl)-2′,7′-difluoro-3′,6′-dihydroxy-3-oxo-3H-spiro[isobenzofuran-1,9′-xanthene]-5-carboxamide) by competitive Wee1 inhibitors.

Sequence of GST-tagged-Wee1 kinase (P30291 whole entry): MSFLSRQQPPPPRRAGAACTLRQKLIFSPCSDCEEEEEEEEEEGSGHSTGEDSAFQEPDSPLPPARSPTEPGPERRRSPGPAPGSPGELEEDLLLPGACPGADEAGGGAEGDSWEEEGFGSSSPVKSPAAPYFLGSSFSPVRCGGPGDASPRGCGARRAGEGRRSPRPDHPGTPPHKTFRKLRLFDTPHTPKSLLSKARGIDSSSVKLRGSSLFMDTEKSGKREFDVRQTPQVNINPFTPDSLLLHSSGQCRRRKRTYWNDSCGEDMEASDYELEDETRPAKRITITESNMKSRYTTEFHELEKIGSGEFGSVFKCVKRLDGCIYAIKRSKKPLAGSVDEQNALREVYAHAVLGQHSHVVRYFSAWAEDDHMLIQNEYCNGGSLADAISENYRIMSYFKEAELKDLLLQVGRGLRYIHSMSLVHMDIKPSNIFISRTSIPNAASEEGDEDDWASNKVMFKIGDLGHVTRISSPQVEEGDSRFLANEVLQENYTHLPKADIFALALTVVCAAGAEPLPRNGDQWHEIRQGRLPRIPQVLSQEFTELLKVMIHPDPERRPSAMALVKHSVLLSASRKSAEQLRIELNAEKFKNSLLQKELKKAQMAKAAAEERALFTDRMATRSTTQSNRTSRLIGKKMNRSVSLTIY

SMILES	Ki [nM]
O=C1CCCN1c1ccc(Nc2ncc3c(=O)n(-c4ccccc4Cl)nc(-c4ccccc4)c3n2)cc1 [Example 168, 6-(2-chlorophenyl)-2-{[4-(2-oxopyrrolidin-1-yl)phenyl]amino}-8-phenylpyrimido[4,5-d]pyridazin-5(6H)-one]	2
C=CCn1nc(-c2ccccc2)c2nc(Nc3ccc(N4CCN(C(C)C)CC4)c(C)c3)ncc2c1=O [Example 169, 6-allyl-2-{[4-(4-isopropylpiperazin-1-yl)-3-methylphenyl]amino}-8-phenylpyrimido[4,5-d]pyridazin-5(6H)-one]	2
Cc1cc(Nc2ncc3c(=O)n(-c4ccccc4C)nc(-c4ccccc4)c3n2)ccc1N1CCN(C(C)C)CC1 [Example 170, 2-{[4-(4-isopropylpiperazin-1-yl)-3-methylphenyl]amino}-6-(2-methylphenyl)-8-phenylpyrimido[4,5-d]pyridazin-5(6H)-one]	0.7
Cc1ccccc1-n1nc(-c2ccccc2)c2nc(Nc3ccc4c(c3)CN(C)CC4)ncc2c1=O [Example 171, 6-(2-methylphenyl)-2-[(2-methyl-1,2,3,4-tetrahydroisoquinolin-7-yl)amino]-8-phenylpyrimido[4,5-d]pyridazin-5(6H)-one]	0.6
C=CCn1nc(-c2ccccc2)c2nc(Nc3ccc4c(c3)CN(C)CC43CC3)ncc2c1=O [Example 172, 6-allyl-2-[(2′-methyl-2′,3′-dihydro-1′H-spiro[cyclopropane-1,4′-isoquinolin]-7′-yl)amino]-8-phenylpyrimido[4,5-d]pyridazin-5(6H)-one]	2.5
Cc1ccccc1-n1nc(-c2ccccc2)c2nc(Nc3ccc4c(c3)CN(C)CC43CC3)ncc2c1=O [Example 173, 2-[(2′-methyl-2′,3′-dihydro-1′H-spiro[cyclopropane-1,4′-isoquinolin]-7′-yl)amino]-6-(2-methylphenyl)-8-phenylpyrimido[4,5-d]pyridazin-5(6H)-one]	0.4
COc1cc(Nc2ncc3c(=O)n(-c4ccccc4Cl)nc(-c4cccs4)c3n2)ccc1N1CCN(C(C)C)CC1 [Example 174, 6-(2-chlorophenyl)-2-{[4-(4-isopropylpiperazin-1-yl)-3-methoxyphenyl]amino}-8-(2-thienyl)pyrimido[4,5-d]pyridazin-5(6H)-one]	0.1
CC(=O)c1cccc(-c2nn(-c3c(Cl)cccc3Cl)c(=O)c3cnc(Nc4ccc(N5CCN(C)CC5)cc4)nc23)n1 [Example 175, 8-(6-acetylpyridin-2-yl)-6-(2,6-dichlorophenyl)-2-{[4-(4-methylpiperazin-1-yl)phenyl]amino}pyrimido[4,5-d]pyridazin-5(6H)-one]	0.2
CCC(O)(CC)c1cccc(-c2nn(-c3c(Cl)cccc3Cl)c(=O)c3cnc(Nc4ccc(N5CCN(C)CC5)cc4)nc23)n1 [Example 176, 6-(2,6-dichlorophenyl)-8-[6-(3-hydroxypentan-3-yl)pyridin-2-yl]-2-{[4-(4-methylpiperazin-1-yl)phenyl]amino}pyrimido[4,5-d]pyridazin-5(6H)-one]	36
CN1CCN(c2ccc(Nc3ncc4c(=O)n(-c5ccccc5)nc(-c5ccncn5)c4n3)cc2)CC1 [Example 177, 2-{[4-(4-methylpiperazin-1-yl)phenyl]amino}-6-phenyl-8-(pyrimidin-4-yl)pyrimido[4,5-d]pyridazin-5(6H)-one]	19
CN1CCN(c2ccc(Nc3ncc4c(=O)n(-c5ccccc5Cl)nc(-c5ccncn5)c4n3)cc2)CC1 [Example 178, 6-(2-chlorophenyl)-2-{[4-(4-methylpiperazin-1-yl)phenyl]amino}-8-(pyrimidin-4-yl)pyrimido[4,5-d]pyridazin-5(6H)-one]	2
CN1CCN(c2ccc(Nc3ncc4c(=O)n(-c5c(Cl)cccc5Cl)nc(-c5ccncn5)c4n3)cc2)CC1 [Example 179, 6-(2,6-dichlorophenyl)-2-{[4-(4-methylpiperazin-1-yl)phenyl]amino}-8-(pyrimidin-4-yl)pyrimido[4,5-d]pyridazin-5(6H)-one]	0.1
CN1CCN(c2ccc(Nc3ncc4c(=O)n(-c5c(Cl)cccc5Cl)nc(-c5cccc(N6CCCC6)n5)c4n3)cc2)CC1 [Example 180, 6-(2,6-dichlorophenyl)-2-{[4-(4-methylpiperazin-1-yl)phenyl]amino}-8-[6-(pyrrolidin-1-yl)pyridin-2-yl]pyrimido[4,5-d]pyridazin-5(6H)-on]	2
CN1CCN(c2ccc(Nc3ncc4c(=O)n(-c5ccccc5Cl)nc(-c5cccc(N6CCCC6)n5)c4n3)cc2)CC1 [Example 181, 6-(2-chlorophenyl)-2-{[4-(4-methylpiperazin-1-yl)phenyl]amino}-8-[6-(pyrrolidin-1-yl)pyridin-2-yl]pyrimido[4,5-d]pyridazin-5(6H)-one]	6
Cc1ccccc1-n1nc(-c2cccc(N3CCCC3)n2)c2nc(Nc3ccc(N4CCN(C)CC4)cc3)ncc2c1=O [Example 182, 6-(2-methylphenyl)-2-{[4-(4-methylpiperazin-1-yl)phenyl]amino}-8-[6-(pyrrolidin-1-yl)pyridin-2-yl]pyrimido[4,5-d]pyridazin-5(6H)-one]	12
CNCc1cccc(-c2nn(-c3c(Cl)cccc3Cl)c(=O)c3cnc(Nc4ccc(N5CCN(C)CC5)cc4)nc23)c1 [Example 183, 6-(2,6-dichlorophenyl)-8-{3-[(methylamino)methyl]phenyl}-2-{[4-(4-methylpiperazin-1-yl)phenyl]amino}pyrimido[4,5-d]pyridazin-5(6H)-one]	0.02
CN(C)Cc1cccc(-c2nn(-c3c(Cl)cccc3Cl)c(=O)c3cnc(Nc4ccc(N5CCN(C)CC5)cc4)nc23)c1 [Example 184, 6-(2,6-dichlorophenyl)-8-{3-[(dimethylamino)methyl]phenyl}-2-{[4-(4-methylpiperazin-1-yl)phenyl]amino}pyrimido[4,5-d]pyridazin-5(6H)-one]	0.03
CC(=O)c1cccc(-c2nn(-c3c(Cl)cccc3Cl)c(=O)c3cnc(Nc4ccc(N5CCN(C)CC5)cc4)nc23)c1 [Example 185, 8-(3-acetylphenyl)-6-(2,6-dichlorophenyl)-2-{[4-(4-methylpiperazin-1-yl)phenyl]amino}pyrimido[4,5-d]pyridazin-5(6H)-one]	0.04
CNC(C)c1cccc(-c2nn(-c3c(Cl)cccc3Cl)c(=O)c3cnc(Nc4ccc(N5CCN(C)CC5)cc4)nc23)c1 (stereo not drawn) [Example 186, 6-(2,6-dichlorophenyl)-8-{3-[1-(methylamino)ethyl]phenyl}-2-{[4-(4-methylpiperazin-1-yl)phenyl]amino}pyrimido[4,5-d]pyridazin-5(6H)-one]	0.02
CN1CCN(c2ccc(Nc3ncc4c(=O)n(C)nc(C5CC(F)(F)C5)c4n3)cc2)CC1 [Example 187, 8-(3,3-difluorocyclobutyl)-6-methyl-2-{[4-(4-methylpiperazin-1-yl)phenyl]amino}pyrimido[4,5-d]pyridazin-5(6H)-one]	1800
COC(=O)c1cccc(-c2nn(-c3c(Cl)cccc3Cl)c(=O)c3cnc(Nc4ccc(N5CCN(C)CC5)cc4)nc23)c1 [Example 188, methyl 3-[6-(2,6-dichlorophenyl)-2-{[4-(4-methylpiperazin-1-yl)phenyl]amino}-5-oxo-5,6-dihydropyrimido[4,5-d]pyridazin-8-yl]benzoate]	1
